Like-named read-outs stand apart in the source and are kept apart here.
Experiments:
[1] = Hepatocyte stability assay; type: in vitro ADME, mouse; conditions: hepatocytes
Experimental: In the liver microsomal stability assay, CLint was 0.601 mL/min/g liver in mouse, 0.563 mL/min/g liver in rat, 0.315 mL/min/g liver in dog, 0.734 mL/min/g liver in monkey, and 0.639 mL/min/g liver in human. In the hepatocyte stability assay, Compound 1 CLint was 0.373 mL/min/g liver in mouse, 0.285 mL/min/g liver in rat, 1.08 mL/min/g liver in dog, 0.533 mL/min/g liver in monkey, and 0.317 mL/min/g liver in human.

[2] = Repeat-dose toxicity studies (7-day range-finding, definitive 28-day, 14-day recovery); type: in vivo, dogs
Experimental: The nonclinical toxicity of Compound 1 was characterized in dose range-finding 7-day and definitive 28-day repeat-dose studies in rats and dogs, and in in vitro bacterial and mammalian genotoxicity bioassays. Compound 1 was also evaluated in definitive neurobehavioral, respiratory and cardiovascular safety pharmacology studies.

[3] = Phase 1 first-in-human Study Compound 1-001 (NCT03845166): plasma pharmacokinetics; type: in vivo; conditions: for Cmax / AUC(0-t) / Tmax / half-life / Tmax at 28 days / half-life at 28 days: human, plasma, oral; for AUC(0-t): read-out: AUC0-24
Description: The maximum tolerated dose (MTD) and/or recommended dose (RD) of Compound 1 single-agent therapy and ICI combination therapy will be determined in a Dose-Escalation Stage. The preliminary efficacy of Compound 1 as single agent and as ICI combination therapy will be determined in a Cohort-Expansion Stage with tumor-specific expansion cohorts. As of 14 Dec. 2020, dose escalation of Compound 1 as single agent and in combination therapy with atezolizumab was ongoing: 19 subjects were enrolled in single agent cohorts across six dose levels (PIB: 10, 20 mg; Tablet: 20, 40, 80, 140 mg); three subjects were enrolled in combination therapy with atezolizumab at one dose level (Compound 1 40 mg po qd plus atezolizumab 1200 mg IV q3w). As of 14 Dec. […] The majority of reported adverse events (AEs) were of low-grade severity (Grade 1-2) with five subjects having experienced treatment-related Grade 3 events.
As of 14 Dec. 2020, preliminary Compound 1 clinical PK data are available from 17 subjects in the single agent Dose-Escalation Stage of Study Compound 1-001 (n=3 for 10 mg liquid formulation [PIB]; n=4 for 20 mg liquid formulation [PIB]; n=3 for 20 mg tablet; n =4 for 40 mg tablet; n=3 for 80 mg tablet). In addition, PK of Compound 1 was evaluated when given in the combination with atezolizumab. PK data from a total of 3 subjects enrolled in the Combination Cohort 1 (40 mg Compound 1 qd+1200 mg atezolizumab q3w) are available. A summary of all available PK parameters estimated by non-compartmental approach using individual plasma concentration-time data from a single agent Compound 1 is presented in Table 1. Mean (standard deviation [SD]) plasma Compound 1 concentration-time profiles following a single agent PIB or tablet formulation are illustrated in FIG. 8.
• Blood samples to assess the PK of Compound 1 and its potential metabolites will be obtained during the DLT Evaluation Period: • On the date of first dose of study treatment (prior to study treatment administration) at hourly intervals up to 8 hours postdose on W1D1 and W4D7 (Day 28) • Predose on W1D2 • Predose and 2 hours postdose on W2D1, W3D1, and W4D1 • During the Washout Period on W5D1, W5D2, W5D3, and W5D5 (W5D2, W5D3, and W5D5 PK samples are not required for biomarker cohorts.) • Blood samples for PK analysis will be obtained after the DLT Evaluation and Washout Periods • Predose and 2 hours postdose on W6D1, W9D1, and W13D1.

CYP2B6 = assay: Cytochrome P450 induction (mRNA levels) in fresh primary human hepatocytes; type: in vitro ADME
CYP2C19 = assay: as above; type: in vitro ADME
[4] = 10 mg PIB, Steady-State (Day 28), mean ± SD
[5] = 20 mg PIB, Steady-State (Day 28), N = 3, mean ± SD
[6] = 20 mg Tablet, Steady-State (Day 28), mean ± SD
[7] = 40 mg Tablet, Steady-State (Day 28), mean ± SD
[8] = 80 mg Tablet, Steady-State (Day 28), mean ± SD
[9] = 10 mg, 10 mg PIB, First Dose (Day 1), mean ± SD
[10] = 10 mg, 10 mg PIB, Steady-State (Day 28), mean ± SD
[11] = 20 mg, 20 mg PIB, First Dose (Day 1), mean ± SD
[12] = 20 mg, 20 mg PIB, Steady-State (Day 28), N = 3, mean ± SD
[13] = 20 mg, 20 mg Tablet, First Dose (Day 1), mean ± SD
[14] = 20 mg, 20 mg Tablet, Steady-State (Day 28), mean ± SD
[15] = 40 mg, 40 mg Tablet, First Dose (Day 1), mean ± SD
[16] = 40 mg, 40 mg Tablet, Steady-State (Day 28), mean ± SD
[17] = 80 mg, 80 mg Tablet, First Dose (Day 1), mean ± SD
[18] = 80 mg, 80 mg Tablet, Steady-State (Day 28), mean ± SD
[19] = human, fresh primary human hepatocytes, mRNA induction, read-out: half-maximal effective concentration (EC50)

CNC(=O)c1cc2c(Oc3ccc(NC(=O)C4(C(=O)Nc5ccc(F)cc5)CC4)cc3)ccnc2cc1OC [Compound 1, 1-N′-(4-Fluorophenvl)-1-N-[4-[7-methoxy-6-(methylcarbamovl)quinolin-4-yl]oxyphenyl]cyclopropane-1,1-dicarboxamide]
CLint [1]: 0.373 mL/min/g liver
reversibility of adverse findings ([2]; 14-day non-treatment recovery period): partially or completely reversible
Cmax at 28 days ([2]; both sexes, dog, plasma, oral, 18 mg/kg/day, daily dosing for 28 days): ~7 µM
ophthalmic findings ([2]; daily for 4 weeks): No adverse ophthalmic findings
QTc interval ([2]; male and female dogs, daily dosing 28 days, 18 mg/kg/day): no QTc interval prolongation
cholesterol ([2]; repeat-dose): increased cholesterol
dose-related clinical signs ([2]; repeat-dose): hypoactivity, vomitus, and fecal changes
reticulocytes ([2]; repeat-dose): transient decreases in reticulocytes
nasal turbinate histologic findings ([2]; terminal sacrifice males >6 mg/kg/day, considered non-adverse): increased incidences and severities of mixed cell inflammation and osteolysis/osteogenesis
AR AUC0-24 (accumulation ratio) [3, 4]: 1.92 ± 0.593
AR Cmax (accumulation ratio) [3, 4]: 2.76 ± 0.609
AR AUC0-24 (accumulation ratio) [3, 5]: 3.61 ± 4.09
AR Cmax (accumulation ratio) [3, 5]: 4.09 ± 5.40
AR AUC0-24 (accumulation ratio) [3, 6]: 1.33 ± 0.136
AR Cmax (accumulation ratio) [3, 6]: 1.30 ± 0.374
mean exposure of Compound 1 (Cmax and AUC0-24) in combination with atezolizumab relative to single agent ([3]; 40 mg Compound 1 qd + 1200 mg atezolizumab q3w, steady-state, lower in combination): approximately 2 fold
AR AUC0-24 (accumulation ratio) [3, 7]: 1.46 ± 0.286
AR Cmax (accumulation ratio) [3, 7]: 1.27 ± 0.0979
AR AUC0-24 (accumulation ratio) [3, 8]: 1.88 ± 0.947
AR Cmax (accumulation ratio) [3, 8]: 1.67 ± 0.636
accumulation at steady state ([3]; 20-mg tablet): < 2 fold
increase of mean exposure (AUC0-24) with dose ([3]; PIB 10 mg to 20 mg, Day 1): approximately dose proportionally
Mean PK exposure (Cmax and AUC0-24) of 20 mg tablet relative to 20 mg PIB ([3]; first dose Day 1, tablet higher): approximately 3.7 fold
increase of exposure with dose ([3]; first dose, 20 to 80 mg tablets, single agent): approximately dose proportional
Cmax [3, 9]: 35.7 ± 10.8 ng/mL
AUC(0-t) [3, 9]: 510 ± 193 ng·h/mL
Tmax ([3]; 10 mg, 10 mg PIB, First Dose (Day 1), median (min, max), read-out: Tmax): 1 h
Cmax [3, 10]: 95.2 ± 17.8 ng/mL
AUC(0-t) [3, 10]: 971 ± 398 ng·h/mL
half-life ([3]; 10 mg, 10 mg PIB, Steady-State (Day 28), mean ± SD, read-out: t1/2 (terminal phase half-life) (converted)): 19.9 ± 1.3 h
Tmax at 28 days ([3]; 10 mg, 10 mg PIB, Steady-State (Day 28), median (min, max)): 2 h
Cmax [3, 11]: 91.9 ± 13.4 ng/mL
AUC(0-t) [3, 11]: 1000 ± 338 ng·h/mL
Tmax ([3]; 20 mg, 20 mg PIB, First Dose (Day 1), median (min, max), read-out: Tmax): 2 h
Cmax [3, 12]: 330 ± 409 ng/mL
AUC(0-t) [3, 12]: 3270 ± 4010 ng·h/mL
half-life ([3]; 20 mg, 20 mg PIB, Steady-State (Day 28), N = 3, mean ± SD, read-out: t1/2 (terminal phase half-life) (converted)): 21 ± 5.7 h
Tmax at 28 days ([3]; 20 mg, 20 mg PIB, Steady-State (Day 28), N = 3, median (min, max)): 2 h
Cmax [3, 13]: 342 ± 225 ng/mL
AUC(0-t) [3, 13]: 3680 ± 1550 ng·h/mL
Tmax ([3]; 20 mg, 20 mg Tablet, First Dose (Day 1), median (min, max), read-out: Tmax): 6 h
Cmax [3, 14]: 422 ± 241 ng/mL
AUC(0-t) [3, 14]: 5030 ± 2560 ng·h/mL
half-life ([3]; 20 mg, 20 mg Tablet, Steady-State (Day 28), mean ± SD, read-out: t1/2 (terminal phase half-life) (converted)): 27.8 ± 4.74 h
Tmax ([3]; 20 mg, 20 mg Tablet, Steady-State (Day 28), median (min, max), read-out: Tmax): 1 h
half-life at 28 days ([3]; 20 mg, PIB 10 and 20 mg, steady-state Day 28, read-out: mean terminal half-life (t1/2) (converted)): ~20 h
Cmax [3, 15]: 521 ± 202 ng/mL
AUC(0-t) [3, 15]: 6350 ± 1540 ng·h/mL
Tmax ([3]; 40 mg, 40 mg Tablet, First Dose (Day 1), median (min, max), read-out: Tmax): 5 h
Cmax [3, 16]: 656 ± 242 ng/mL
AUC(0-t) [3, 16]: 8190 ± 1560 ng·h/mL
half-life ([3]; 40 mg, 40 mg Tablet, Steady-State (Day 28), mean ± SD, read-out: t1/2 (terminal phase half-life) (converted)): 24.2 ± 5.01 h
Tmax ([3]; 40 mg, 40 mg Tablet, Steady-State (Day 28), median (min, max), read-out: Tmax): 3 h
Cmax [3, 17]: 935 ± 348 ng/mL
AUC(0-t) [3, 17]: 11000 ± 6290 ng·h/mL
Tmax ([3]; 80 mg, 80 mg Tablet, First Dose (Day 1), median (min, max), read-out: Tmax): 2 h
Cmax [3, 18]: 1440 ± 454 ng/mL
AUC(0-t) [3, 18]: 16900 ± 3120 ng·h/mL
half-life ([3]; 80 mg, 80 mg Tablet, Steady-State (Day 28), mean ± SD, read-out: t1/2 (terminal phase half-life) (converted)): 19.3 ± 3.35 h
Tmax ([3]; 80 mg, 80 mg Tablet, Steady-State (Day 28), median (min, max), read-out: Tmax): 3 h
Tmax ([3]; first dose, tablets 20 to 80 mg, read-out: median Tmax): 2 to 6 h
half-life ([3]; tablet (as of April 2021), read-out: terminal half-life at steady state): 24 to 28 h
half-life at 28 days ([3]; tablets, steady-state, read-out: mean t1/2): 19 to 28 h
exposure (AUC0-24) of 20-mg tablet higher than 20 mg PIB ([3]; steady-state Day 28): approximately 50%
accumulation in exposure (Cmax and AUC0-24) at steady-state ([3]; tablets, after 28 days of daily dosing): < 2 fold
mean apparent CL/F ([3]; tablets, steady-state): approximately 5 L/hr
EC50 (CYP2B6; [19]): 5.41 µM
maximal induction effect (Emax) (CYP2B6; mRNA, 0.1-100 μM): 17 fold
EC50 (CYP2C19; [19]): 6.21 µM
maximal induction effect (Emax) (CYP2C19; mRNA, 0.1-100 μM): 6 fold
